# Assay results reported in ChEMBL document CHEMBL1149624, “9-Substituted berberine derivatives as G-quadruplex stabilizing ligands in telomeric DNA” (Bioorg Med Chem, 2007).
# Tests used:
# Homo sapiens [1] = organism: Homo sapiens; test: Binding affinity to human telo21 G-quadruplex DNA assessed as thermal stability in tris-HCl buffer at pH 7.4
# Homo sapiens [2] = organism: Homo sapiens; test: Binding affinity to human telo21 G-quadruplex DNA assessed as change in thermal stability in tris-HCl buffer at pH 7.4
# [3] = Inhibition of amplification in human telo21 G-quadruplex DNA by PCR stop assay
# [4] = Inhibition of telomerase expressed in MCF7 cells by TRAP assay; format: cell-based, Homo sapiens
Compound,Tm (Homo sapiens [1]) [°C],ΔTm (Homo sapiens [2]) [°C],IC50 [3] [µM],IC50 [4] [µM]
COc1ccc2cc3[n+](cc2c1OCCCN1CCNCC1)CCc1cc2c(cc1-3)OCO2,63.1,23,0.7,7.5
CCN(CC)CCOc1c(OC)ccc2cc3[n+](cc12)CCc1cc2c(cc1-3)OCO2,57,16.9,2.3,25
COc1ccc2cc3[n+](cc2c1OCCN(C(C)C)C(C)C)CCc1cc2c(cc1-3)OCO2,51.7,11.6,2.3,25
COc1ccc2cc3[n+](cc2c1OC)CCc1cc2c(cc1-3)OCO2 [BERBERINE CHLORIDE],44,3.9,2.1,75
